According to patent US10023566B2, “Dasatinib salts” (EGIS GYOGYSZERGYAR ZRT, priority 2014, dated 2018):
Structures can show the parent of a compound that is named as a salt.

Assays:
Type in all cases: physicochemical
[1] = Determination of the solubility of dasatinib salts (shake flask 37° C., HPLC); settings: 6 hour shaking, 18 hour sedimentation
Procedure: Considering the above mentioned facts our solubility measurements were carried out on three different pH values (pH 1, pH 4.5 and pH 6.8).
Determination of the Solubility of Dasatinib Salts (Measurement Conditions)
Preparation of Sample Mixture:
• 100 mg of dasatinib salt are weighed in a 20 ml Erlenmeyer flask whereupon 10 ml of medium are added and it is shaked for 6 hours at a temperature of 37° C. on 100 rpm. After sedimentation for 18 hours at a temperature of 37° C. the settled solution is filtered through a sieve with 0.45 μm pores and the solution is diluted up to 20 ml with medium.

[2] = Storage stability test: quantity of impurities by HPLC and change thereof; settings: for stability in the storage tests (in words): storage tests carried out under various conditions, thermal stress and forced stability tests
From the text: In course of the thermal stress test and the forced stability test the decompositions in a pharmaceutical composition occurring during storage are constructed essentially in an accelerated manner. […] The advantageous properties of the new dasatinib salts of the present invention are significant from the point of view of the formulation of pharmaceutical compositions, the storage and the minimization of the harmful effects exerted in the human body.
The stability of the new dasatinib salts of the present invention were subjected to detailed tests.
Our results regarding the quantity of the impurities and change thereof are shown in the tables below (expressed in percentage).
Measuring conditions are the same as the determination of purity profile below.
Determination of the Impurities of Dasatinib Salts by HPLC (Measurement Conditions)

[3] = Water adsorption, DVS (dynamic vapor sorption) analysis; settings: after drying
From the text: As it is disclosed in WO2007/035874 paragraph [0096] dasatinib mono HCl includes a cavity or channel, which may be partially or fully occupied by solvent or a mixture of solvent. […] Further salts disclosed in the prior art also contain solvent adsorbed on the surface or in the form of solvate. These forms are nor suitable for pharmaceutical application. […] Therefore we carried out our comparative experiments between dasatinib base monohydrate and the new salts of the present invention.

solubility ([1]; 0.1M HCl (pH 1)) | solubility ([1]; pH = 4.5 phosphate buffer) | solubility ([1]; pH = 6.8 phosphate buffer) | Impurity Dasatinib N-oxyde (RT 12.2-12.4) ([2]; 3 week, 25° C./90% RH) | Impurity Deshydroxyethyl dasatinib (RT 11.0) ([2]; 3 week, 25° C./90% RH) | Impurity Ethylene-diamine intermedier (RT 9.0-9.3) ([2]; 3 week, 25° C./90% RH) | Impurity Summary (%) ([2]; 3 week, 25° C./90% RH) | Impurity Dasatinib N-oxyde (RT 12.2-12.4) ([2]; 3 week, 40° C./70% RH) | Impurity Deshydroxyethyl dasatinib (RT 11.0) ([2]; 3 week, 40° C./70% RH) | Impurity Ethylene-diamine intermedier (RT 9.0-9.3) ([2]; 3 week, 40° C./70% RH) | Impurity Summary (%) ([2]; 3 week, 40° C./70% RH) | Impurity Deshydroxyethyl dasatinib (RT 11.0) ([2]; 6 week, 25° C./90% RH) | Impurity Ethylene-diamine intermedier (RT 9.0-9.3) ([2]; 6 week, 25° C./90% RH) | Impurity Summary (%) ([2]; 6 week, 25° C./90% RH) | Impurity Dasatinib N-oxyde (RT 12.2-12.4) ([2]; 6 week, 40° C./70% RH) | Impurity Deshydroxyethyl dasatinib (RT 11.0) ([2]; 6 week, 40° C./70% RH) | Impurity Ethylene-diamine intermedier (RT 9.0-9.3) ([2]; 6 week, 40° C./70% RH) | Impurity Summary (%) ([2]; 6 week, 40° C./70% RH) | Impurity Deshydroxyethyl dasatinib (RT 11.0) ([2]; starting sample) | Impurity Summary (%) ([2]; starting sample) | SMILES | also measured
5.757 mg/mL | 0.555 mg/mL | 0.156 mg/mL | 0.03% | 0.12% | 0.06% | 0.43% | 0.03% | 0.12% | 0.08% | 0.43% | 0.12% | 0.03% | 0.39% | 0.02% | 0.12% | 0.03% | 0.41% | 0.12% | 0.38% | Cc1nc(Nc2ncc(C(=O)Nc3c(C)cccc3Cl)s2)cc(N2CCN(CCO)CC2)n1 [Dasatinib monohydrate, N-(2-Chloro-6-methylphenyl)-2-[6-[4-(2-hydroxyethyl)piperazin-1-yl]-2-methylpyrimidin-4-ylamino]-1,3-thiazole-5-carboxamide, reference compound] | Impurity Dasatinib imp 2 (RT 5.2) ([2]; 3 week, 25° C./90% RH): 0.11%; Impurity Dasatinib imp 3 (RT 18.9) ([2]; 3 week, 25° C./90% RH): 0.04%; Impurity, unnamed, RT 20.3 ([2]; 3 week, 25° C./90% RH): 0.07%; Impurity Dasatinib imp 2 (RT 5.2) ([2]; 3 week, 40° C./70% RH): 0.10%; Impurity Dasatinib imp 3 (RT 18.9) ([2]; 3 week, 40° C./70% RH): 0.03%; Impurity, unnamed, RT 20.3 ([2]; 3 week, 40° C./70% RH): 0.07%; Impurity Dasatinib imp 2 (RT 5.2) ([2]; 6 week, 25° C./90% RH): 0.10%; Impurity Dasatinib imp 3 (RT 18.9) ([2]; 6 week, 25° C./90% RH): 0.04%; Impurity, unnamed, RT 19.6 ([2]; 6 week, 25° C./90% RH): 0.02%; Impurity, unnamed, RT 20.3 ([2]; 6 week, 25° C./90% RH): 0.08%; Impurity Dasatinib imp 2 (RT 5.2) ([2]; 6 week, 40° C./70% RH): 0.11%; Impurity Dasatinib imp 3 (RT 18.9) ([2]; 6 week, 40° C./70% RH): 0.04%; Impurity, unnamed, RT 19.6 ([2]; 6 week, 40° C./70% RH): 0.02%; Impurity, unnamed, RT 20.3 ([2]; 6 week, 40° C./70% RH): 0.07%; Impurity Dasatinib N-oxyde (RT 12.2-12.4) ([2]; starting sample): 0.02%; Impurity Dasatinib imp 2 (RT 5.2) ([2]; starting sample): 0.11%; Impurity Dasatinib imp 3 (RT 18.9) ([2]; starting sample): 0.04%; Impurity Ethylene-diamine intermedier (RT 9.0-9.3) ([2]; starting sample): 0.03%; Impurity, unnamed, RT 20.3 ([2]; starting sample): 0.08%; stability in the storage tests (in words) ([2]; listed as dasatinib base monohydrate): most stable and suitable form disclosed in the prior art
8.862 mg/mL | 4.544 mg/mL |  | 0.04% | 0.04% | 0.03% | 0.11% |  | 0.04% | 0.03% | 0.07% | 0.04% | 0.03% | 0.07% | 0.03% | 0.04% | 0.02% | 0.09% | 0.04% | 0.07% | Cc1nc(Nc2ncc(C(=O)Nc3c(C)cccc3Cl)s2)cc(N2CCN(CCO)CC2)n1 [dasatinib cyclamic acid (1:1) salt Form II] [N-(2-Chloro-6-methylphenyl)-2-[6-[4-(2-hydroxyethyl)piperazin-1-yl]-2-methylpyrimidin-4-ylamino]-1,3-thiazole-5-carboxamide] | Impurity Ethylene-diamine intermedier (RT 9.0-9.3) ([2]; starting sample): 0.03%; stability in the storage tests (in words) [2]: particularly stable
8.533 mg/mL | 6.194 mg/mL | 0.005 mg/mL | 0.03% | 0.03% | 0.02% | 0.11% | 0.03% | 0.03% |  | 0.09% | 0.03% |  | 0.06% | 0.03% | 0.03% |  | 0.06% | 0.03% | 0.09% | Cc1nc(Nc2ncc(C(=O)Nc3c(C)cccc3Cl)s2)cc(N2CCN(CCO)CC2)n1 [dasatinib cyclamic acid (1:1) salt Form I] [N-(2-Chloro-6-methylphenyl)-2-[6-[4-(2-hydroxyethyl)piperazin-1-yl]-2-methylpyrimidin-4-ylamino]-1,3-thiazole-5-carboxamide] | Impurity, unnamed, RT 15.5 ([2]; 3 week, 25° C./90% RH): 0.03%; Impurity, unnamed, RT 15.5 ([2]; 3 week, 40° C./70% RH): 0.03%; Impurity Dasatinib N-oxyde (RT 12.2-12.4) ([2]; 6 week, 25° C./90% RH): 0.03%; Impurity Dasatinib N-oxyde (RT 12.2-12.4) ([2]; starting sample): 0.03%; Impurity, unnamed, RT 15.5 ([2]; starting sample): 0.03%; stability in the storage tests (in words) [2]: particularly stable
 |  |  |  |  |  |  |  |  |  |  |  |  |  |  |  |  |  |  |  | Cc1nc(Nc2ncc(C(=O)Nc3c(C)cccc3Cl)s2)cc(N2CCN(CCO)CC2)n1 [dasatinib diHCl salt, N-(2-Chloro-6-methylphenyl)-2-[6-[4-(2-hydroxyethyl)piperazin-1-yl]-2-methylpyrimidin-4-ylamino]-1,3-thiazole-5-carboxamide] | water adsorption property (in words) [3]: tends to adsorb water
7.994 mg/mL | 1.056 mg/mL |  |  |  |  |  |  |  |  |  |  |  |  |  |  |  |  |  |  | Cc1nc(Nc2ncc(C(=O)Nc3c(C)cccc3Cl)s2)cc(N2CCN(CCO)CC2)n1 [dasatinib hydrogen bromide (1:2) salt, N-(2-Chloro-6-methylphenyl)-2-[6-[4-(2-hydroxyethyl)piperazin-1-yl]-2-methylpyrimidin-4-ylamino]-1,3-thiazole-5-carboxamide] | 
